From PubChem BioAssay AID248 (DTP/NCI, 2004)
Values joined by “and” are separate entries in the source; they are usually repeats but may differ in a detail not shown here. Identical values can stand only once. Toxic doses and inconclusive results are not listed. Cut-off read from the data, not from the text of the source: active = T/C of 150% or more; inactive = T/C below 125%.

System: L1210 leukemia ip in BDF1 mice, survival T/C
Test: NCI In Vivo Anticancer Drug Screen. Data for tumor model L1210 Leukemia (intraperitoneal) in B6D2F1 (BDF1) mice
Details: endpoint: mean survival time, higher = longer survival
Outline: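 Ratio derived from survival: compound-dosed mice over vehicle-dosed mice, all bearing a transplantable tumor.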

[1] = dose: 100.0 mg/kg/injection, schedule: Q04DX003 (ip), vehicle: Klucel (hydroxypropylcellulose) (HPC)
[2] = dose: 100.0 mg/kg/injection, schedule: Q04DX003 (ip), vehicle: saline with Tween-80
[3] = dose: 100.0 mg/kg/injection, schedule: Q04DX002 (ip), vehicle: saline with Tween-80
[4] = dose: 200.0 mg/kg/injection, schedule: Q04DX002 (ip), vehicle: saline with Tween-80
[5] = dose: 100.0 mg/kg/injection, schedule: Q01DX009 (ip), vehicle: saline with Tween-80
[6] = dose: 200.0 mg/kg/injection, schedule: Q01DX009 (ip), vehicle: saline with Tween-80
[7] = dose: 200.0 mg/kg/injection, schedule: Q04DX003 (ip), vehicle: saline with Tween-80
[8] = dose: 400.0 mg/kg/injection, schedule: Q04DX002 (ip), vehicle: saline with Tween-80
[9] = dose: 400.0 mg/kg/injection, schedule: Q04DX003 (ip), vehicle: saline with Tween-80
[10] = dose: 100.0 mg/kg/injection, schedule: Q01DX001 (ip), vehicle: saline
[11] = dose: 200.0 mg/kg/injection, schedule: Q01DX001 (ip), vehicle: saline
[12] = dose: 100.0 mg/kg/injection, schedule: Q01DX009 (ip), vehicle: Klucel (hydroxypropylcellulose) (HPC)
[13] = dose: 200.0 mg/kg/injection, schedule: Q01DX009 (ip), vehicle: Klucel (hydroxypropylcellulose) (HPC)
[14] = dose: 200.0 mg/kg/injection, schedule: Q04DX003 (ip), vehicle: Klucel (hydroxypropylcellulose) (HPC)
[15] = dose: 400.0 mg/kg/injection, schedule: Q01DX009 (ip), vehicle: Klucel (hydroxypropylcellulose) (HPC)
[16] = dose: 400.0 mg/kg/injection, schedule: Q04DX003 (ip), vehicle: Klucel (hydroxypropylcellulose) (HPC)

Measured: T/C

CCCCCCCCCCCCCCCC[N+](C)(C)C
inactive: dose: 0.93 mg/kg/injection, schedule: Q04DX003 (ip), vehicle: saline 97 % of control | dose: 1.09 mg/kg/injection, schedule: Q01DX009 (ip), vehicle: saline 100 % of control | dose: 1.87 mg/kg/injection, schedule: Q01DX009 (ip), vehicle: saline 92 % of control | dose: 1.87 mg/kg/injection, schedule: Q04DX003 (ip), vehicle: saline 106 % of control | dose: 2.0 mg/kg/injection, schedule: Q01DX015 (ip), vehicle: saline 94 % of control | dose: 2.18 mg/kg/injection, schedule: Q01DX009 (ip), vehicle: saline 100 % of control | dose: 3.75 mg/kg/injection, schedule: Q01DX009 (ip), vehicle: saline 92 % of control | dose: 3.75 mg/kg/injection, schedule: Q04DX003 (ip), vehicle: saline 95 % of control | dose: 4.0 mg/kg/injection, schedule: Q01DX015 (ip), vehicle: saline 95 % of control | dose: 4.37 mg/kg/injection, schedule: Q01DX009 (ip), vehicle: saline 91 % of control | dose: 6.25 mg/kg/injection, schedule: Q04DX003 (ip), vehicle: saline 101 % of control | dose: 7.5 mg/kg/injection, schedule: Q01DX009 (ip), vehicle: saline 92 % of control | dose: 7.5 mg/kg/injection, schedule: Q04DX003 (ip), vehicle: saline 90 % of control | dose: 11.0 mg/kg/injection, schedule: Q01DX009 (ip), vehicle: saline 113 % of control | dose: 12.5 mg/kg/injection, schedule: Q01DX001 (ip), vehicle: saline 95 % of control | dose: 12.5 mg/kg/injection, schedule: Q04DX003 (ip), vehicle: saline 105 % of control | dose: 25.0 mg/kg/injection, schedule: Q01DX001 (ip), vehicle: saline 98 % of control | dose: 25.0 mg/kg/injection, schedule: Q04DX003 (ip), vehicle: carboxymethylcellulose (CMC) 105 % of control | dose: 25.0 mg/kg/injection, schedule: Q04DX003 (ip), vehicle: saline 90 % of control | dose: 35.0 mg/kg/injection, schedule: Q04DX003 (ip), vehicle: saline 88 % of control | dose: 50.0 mg/kg/injection, schedule: Q04DX003 (ip), vehicle: carboxymethylcellulose (CMC) 100 % of control | [1] 103 % of control

[Cl][Pt+2]([Cl])([Cl])[Cl].c1ccc(C2CC[N-]CC2)cc1.c1ccc(C2CC[N-]CC2)cc1
inactive: dose: 50.0 mg/kg/injection, schedule: Q01DX009 (ip), vehicle: water 101 % of control | dose: 100.0 mg/kg/injection, schedule: Q01DX009 (ip), vehicle: water 102 % of control | dose: 100.0 mg/kg/injection, schedule: Q04DX003 (ip), vehicle: water 105 % of control | dose: 200.0 mg/kg/injection, schedule: Q04DX003 (ip), vehicle: water 103 % of control

NC(=O)NC1C=CC=CC=C1
inactive: dose: 100.0 mg/kg/injection, schedule: Q01DX001 (ip), vehicle: acetone 107 % of control | dose: 200.0 mg/kg/injection, schedule: Q01DX001 (ip), vehicle: acetone 93 % of control | dose: 400.0 mg/kg/injection, schedule: Q01DX001 (ip), vehicle: acetone 98 % of control

N#CC(C#N)=Cc1ccnc2ccccc12
inactive: dose: 10.0 mg/kg/injection, schedule: Q01DX009 (ip), vehicle: saline with Tween-80 101 % of control | dose: 12.5 mg/kg/injection, schedule: Q04DX003 (ip), vehicle: saline with Tween-80 101 % of control | dose: 20.0 mg/kg/injection, schedule: Q01DX009 (ip), vehicle: saline with Tween-80 101 % of control | dose: 25.0 mg/kg/injection, schedule: Q04DX003 (ip), vehicle: saline with Tween-80 104 % of control | dose: 40.0 mg/kg/injection, schedule: Q01DX009 (ip), vehicle: saline with Tween-80 101 % of control | dose: 50.0 mg/kg/injection, schedule: Q04DX003 (ip), vehicle: saline with Tween-80 95 % of control | [2] 105 % of control

CC12CCC3c4ccc(Oc5ccc(N)cc5)cc4CCC3C1CCC2=O (stereo unspecified)
inactive: dose: 100.0 mg/kg/injection, schedule: Q01DX001 (sc), vehicle: steriod suspending solution 101 % of control | dose: 200.0 mg/kg/injection, schedule: Q01DX001 (sc), vehicle: steriod suspending solution 95 % of control | dose: 400.0 mg/kg/injection, schedule: Q01DX001 (sc), vehicle: steriod suspending solution 101 % of control

Cc1cc([N+](=O)[O-])c2ccccc2[n+]1[O-]
inactive: dose: 25.0 mg/kg/injection, schedule: Q01DX009 (ip), vehicle: saline with Tween-80 96 % of control

CN(C)/C=N\N(c1ccccc1)c1ccccc1
inactive: [3] 106 % of control | [4] 98 % of control

COc1ccc(S(=O)(=O)F)cc1C(=O)O
inactive: dose: 100.0 mg/kg/injection, schedule: Q01DX001 (ip), vehicle: saline with Tween-80 100 % of control | [5] 100 % of control | [3] 90 % of control | [2] 94 % of control | dose: 200.0 mg/kg/injection, schedule: Q01DX001 (ip), vehicle: saline with Tween-80 92 % of control | [6] 100 % of control | [4] 113 % of control | [7] 97 % of control | dose: 400.0 mg/kg/injection, schedule: Q01DX001 (ip), vehicle: saline with Tween-80 94 % of control | [8] 86 % of control | [9] 88 % of control

CN(C)CCC(=O)c1ccc(Cl)cc1
inactive: dose: 50.0 mg/kg/injection, schedule: Q01DX001 (ip), vehicle: saline 101 % of control | dose: 50.0 mg/kg/injection, schedule: Q01DX009 (ip), vehicle: saline 95 % of control and 117 % of control | [10] 101 % of control | dose: 100.0 mg/kg/injection, schedule: Q01DX009 (ip), vehicle: saline 99 % of control and 103 % of control | dose: 100.0 mg/kg/injection, schedule: Q04DX002 (ip), vehicle: saline 95 % of control and 103 % of control | [11] 101 % of control | dose: 200.0 mg/kg/injection, schedule: Q04DX002 (ip), vehicle: saline 93 % of control and 90 % of control

CC(CO)(CO)N=Cc1ccc(N(CCCl)CCCl)cc1
inactive: dose: 100.0 mg/kg/injection, schedule: Q01DX001 (ip), vehicle: carboxymethylcellulose (CMC) 106 % of control | dose: 200.0 mg/kg/injection, schedule: Q01DX001 (ip), vehicle: carboxymethylcellulose (CMC) 97 % of control | dose: 400.0 mg/kg/injection, schedule: Q01DX001 (ip), vehicle: carboxymethylcellulose (CMC) 101 % of control

CC(=O)Nc1ccc2ccc3ccccc3c2c1
inactive: [12] 94 % of control | [1] 98 % of control | [13] 95 % of control | [14] 98 % of control | [15] 92 % of control | [16] 94 % of control

COc1ccc(Cl)cc1NC(=O)Nc1cc(Cl)c(Cl)cc1C
inactive: [12] 102 % of control | [1] 95 % of control | [13] 100 % of control | [14] 94 % of control | [15] 97 % of control | [16] 94 % of control

CCC(CC)=NNc1ccc([N+](=O)[O-])cc1[N+](=O)[O-]
inactive: [10] 95 % of control | [11] 97 % of control | dose: 400.0 mg/kg/injection, schedule: Q01DX001 (ip), vehicle: saline 97 % of control

COc1ccc(Cl)cc1NC(=O)c1cccc(C(=O)Nc2cc(Cl)ccc2OC)c1
inactive: [12] 92 % of control | [1] 94 % of control | [13] 93 % of control | [14] 94 % of control | [15] 104 % of control | [16] 92 % of control

O=C1NCC2(O1)c1ccccc1-c1ccccc12
inactive: dose: 25.6 mg/kg/injection, schedule: Q04DX002 (ip), vehicle: saline with Tween-80 92 % of control | dose: 64.0 mg/kg/injection, schedule: Q04DX002 (ip), vehicle: saline with Tween-80 98 % of control | dose: 160.0 mg/kg/injection, schedule: Q04DX002 (ip), vehicle: saline with Tween-80 113 % of control

CCC(=O)c1ccc(OC(=O)Nc2ccc(Cl)cc2[N+](=O)[O-])cc1
inactive: [5] 100 % of control and 92 % of control | [3] 97 % of control and 113 % of control | [2] 102 % of control | [6] 96 % of control and 103 % of control | [4] 97 % of control and 91 % of control | [7] 95 % of control | dose: 400.0 mg/kg/injection, schedule: Q01DX009 (ip), vehicle: saline with Tween-80 92 % of control | [8] 95 % of control and 92 % of control | [9] 97 % of control
